Measured values from patent publication US11919904B2, “Sulfonylamide compounds as CDK2 inhibitors” (Incyte Corporation, priority 2019, dated 2024).

Tests used:
CDK2/Cyclin E1 = CDK2/Cyclin E1 (Homo sapiens (Human), UniProt P24941); experiment: CDK2/Cyclin E1 HTRF enzyme activity assay; assay type: biochemical; conditions: 1 mM ATP
Description: CDK2/Cyclin E1 enzyme activity assays utilize full-length human CDK2 co-expressed as N-terminal GST-tagged protein with FLAG-Cyclin E1 in a baculovirus expression system (Carna Product Number 04-165). Assays are conducted in white 384-well polystyrene plates in a final reaction volume of 8 μL. CDK2/Cyclin E1 (0.25 nM) is incubated with compounds (40 nL serially diluted in DMSO) in the presence of ATP (50 μM or 1 mM) and 50 nM ULight™-labeled eIF4E-binding protein 1 (THR37/46) peptide (PerkinElmer) in assay buffer (containing 50 mM HEPES pH 7.5, 1 mM EGTA, 10 mM MgCl2, 2 mM DTT, 0.05 mg/mL BSA, and 0.01% Tween 20) for 60 minutes at room temperature. The reactions are stopped by the addition of EDTA and Europium-labeled anti-phospho-4E-BP1 antibody (PerkinElmer), for a final concentration of 15 mM and 1.5 nM, respectively. HTRF signals are read after 1 hour at room temperature on a PHERAstar FS plate reader (BMG Labtech). Data is analyzed with IDBS XLFit and GraphPad Prism 5.0 software using a three or four parameter dose response curve to determine IC50 for each compound.

[1] = tested on: Rb phosphorylated on serine 780 in CCNE1 amplified COV318 cells; experiment: CDK2 pRb (S780) HTRF cellular assay; assay type: cell-based; conditions: Homo sapiens, FIG. 10B
Description: CDK2 pRb ([…]) HTRF cellular assay enables the quantitative detection of Rb phosphorylated on […] in CCNE1 amplified COV318 cells. The assay comprised two antibodies: Europium cryptate labeled anti-Phospho-Rb […] antibody (donor) and d2 labeled anti-Rb antibody (acceptor). […] The final concentrations of compounds start from 3 μM. […] After 2 h of incubation at room temperature, HTRF signals were measured on the PHERAstar microplate reader (BMG Labtech), using 340 nm as excitation wavelength, a 620 nm filter for the Europium donor fluorescence, and a 665-nm filter for the acceptor fluorescence detection. HTRF signals were calculated as the HTRF ratio (ratio of fluorescence measured at 665 nm and 620 nm)×10000.

[2] = tested on: CCNE1 amplified COV318 cells; experiment: Cell cycle analysis by FACS in COV318 cells with control or p16 siRNA; assay type: cell-based, human; conditions: 100 nM, sixteen hours
Description: To confirm the role of p16 in CDK2-sensitivity of CCNE-amplified cells, COV318 cells were treated with control or p16-specifict siRNA.
Bulk DNA was stained with DAPI. Compound-treated and DMSO treated control cells were acquired with CytoFlex (Beckman Coulter) and were analyzed using the FlowJo software. For cell cycle analysis of cells with siRNA knockdown, 72 hours after siRNA transfection, cells exposed to 10 μM EdU for 3 hours before detection of Click-iT Alexa Fluor® 647 azide kit.

SMILES	IC50 (CDK2/Cyclin E1)	further results
CNS(=O)(=O)c1ccc(Nc2ncc3c(n2)N([C@@H]2CCC[C@@H](O)C2)C(=O)C32CC2)cc1 [Example 6, 4-((7′-((1R,3R)-3-hydroxycyclohexyl)-6′-oxo-6′,7′-dihydrospiro [cyclopropane-1,5′-pyrrolo[2,3-d]pyrimidin]-2′-yl)amino)-N-methylbenzene sulfonamide]	≤ 50 nM	
CC1(NS(=O)(=O)c2ccc(Nc3ncc4c(n3)N([C@@H]3CCC[C@]3(C)O)C(=O)C43CC3)cc2)CNC1 (relative stereo) [Example 3, 4-((7′-((cis)-2-hydroxy-2-methylcyclopentyl)-6′-oxo-6′,7′-dihydrospiro[cyclopropane-1,5′-pyrrolo[2,3-d]pyrimidin]-2′-yl)amino)-N-(3-methylazetidin-3-yl)benzenesulfonamide]	≤ 50 nM	
C[C@@]1(O)CCC[C@H]1n1c(=O)ccc2cnc(NC3CCN(S(C)(=O)=O)CC3)nc21 [Compound A, 8-((1R,2R)-2-hydroxy-2-methylcyclopentyl)-2-((1-(methylsulfonyl)piperidin-4-yl)amino)pyrido[2,3-d]pyrimidin-7(8H)-one]		IC50 [1]: 37 nM; percentage of S phase cells ([2]; control siRNA-treated cells): significantly decreased; percentage of S phase cells ([2]; p16 knocked down cells, compared to DMSO control): not significantly decreased
CNS(=O)(=O)c1ccc(Nc2ncc3c(n2)N([C@@H]2CCC[C@]2(C)O)C(=O)C32CC2)cc1 (relative stereo) [Example 1, 4-((7′-((cis)-2-hydroxy-2-methylcyclopentyl)-6′-oxo-6′,7′-dihydrospiro[cyclopropane-1,5′-pyrrolo[2,3-d]pyrimidin]-2′-yl)amino)-N-methylbenzenesulfonamide]	≤ 50 nM	
CC[C@@H](N1C(=O)C2(CC2)c2cnc(Nc3ccc(S(=O)(=O)NC)cc3)nc21)C(F)(F)F [Example 4, (R)—N-methyl-4-((6′-oxo-7′-(1,1,1-trifluorobutan-2-yl)-6′,7′-dihydrospiro[cyclopropane-1,5′-pyrrolo[2,3-d]pyrimidin]-2′-yl)amino)benzenesulfonamide]	≤ 50 nM	
CNS(=O)(=O)c1ccc(Nc2ncc3c(n2)N([C@@H]2CCC[C@H]2C)C(=O)C32CC2)cc1 (relative stereo) [Example 2, N-methyl-4-((7′-((trans)-2-methylcyclopentyl)-6′-oxo-6′,7′-dihydrospiro[cyclopropane-1,5′-pyrrolo[2,3-d]pyrimidin]-2′-yl)amino)benzenesulfonamide]	≤ 50 nM	
[2H]C([2H])([2H])NS(=O)(=O)c1ccc(Nc2ncc3c(n2)N([C@@H]2CCC[C@@H](O)C2)C(=O)C32CC2)cc1 [Example 7, 4-((7′-((1R,3R)-3-hydroxycyclohexyl)-6′-oxo-6′,7′-dihydrospiro[cyclopropane-1,5′-pyrrolo[2,3-d]pyrimidin]-2′-yl)amino)-N-(methyl-d)benzenesulfonamide]	≤ 50 nM	
CC1CCCC1N1C(=O)C2(CC2)c2cnc(Nc3ccc(S(=O)(=O)N[C@@H]4CCCN(C)C4)cc3)nc21 (stereo partly drawn) [Example 5, 4-((7′-(2-methylcyclopentyl)-6′-oxo-6′,7′-dihydrospiro[cyclopropane-1,5′-pyrrolo[2,3-d]pyrimidin]-2′-yl)amino)-N—((R)-1-methylpiperidin-3-yl) benzenesulfonamide]	≤ 50 nM	

Continued, in another order:

IC50 (CDK2/Cyclin E1)	SMILES	further results
≤ 50 nM	[2H]C([2H])([2H])NS(=O)(=O)c1ccc(Nc2ncc3c(n2)N([C@@H](C)C2CC2)C(=O)C32CC2)cc1 [Example 8, (S)-4-((7′-(1-cyclopropylethyl)-6′-oxo-6′,7′-dihydrospiro[cyclopropane-1,5′-pyrrolo[2,3-d]pyrimidin]-2′-yl)amino)-N-(methyl-d)benzenesulfonamide]	
≤ 50 nM	CC(C)(O)CNS(=O)(=O)c1ccc(Nc2ncc3c(n2)N([C@@H]2CCC[C@@]2(C)O)C(=O)C32CC2)cc1 [Example 10, 4-((7′-(2-hydroxy-2-methylcyclopentyl)-6′-oxo-6′,7′-dihydrospiro [cyclopropane-1,5′-pyrrolo[2,3-d]pyrimidin]-2′-yl)amino)-N-(2-hydroxy-2-methylpropyl)benzenesulfonamide]	
≤ 50 nM	CN(C)CCNS(=O)(=O)c1ccc(Nc2ncc3c(n2)N(c2cc(F)ccc2Cl)C(=O)C32CC2)cc1 [Example 12, 4-((7′-(2-chloro-5-fluorophenyl)-6′-oxo-6′,7′-dihydrospiro[cyclopropane-1,5′-pyrrolo[2,3-d]pyrimidin]-2′-yl)amino)-N-(2-(dimethylamino)ethyl)benzenesulfonamide]	
≤ 50 nM	CNS(=O)(=O)c1ccc(Nc2ncc3c(n2)N(c2cc(F)ccc2C)C(=O)C32CC2)cc1 [Example 14, 4-((7′-(5-fluoro-2-methylphenyl)-6′-oxo-6′,7′-dihydrospiro[cyclopropane-1,5′-pyrrolo[2,3-d]pyrimidin]-2′-yl)amino)-N-methylbenzenesulfonamide]	
≤ 50 nM	[2H]C([2H])([2H])NS(=O)(=O)c1ccc(Nc2ncc3c(n2)N([C@@H]2CCC[C@@]2(C)O)C(=O)C32CC2)cc1 (single isomer, unassigned) [Example 9, 4-((7′-((trans)-2-hydroxy-2-methylcyclopentyl)-6′-oxo-6′,7′-dihydrospiro [cyclopropane-1,5′-pyrrolo[2,3-d]pyrimidin]-2′-yl)amino)-N-(methyl-d)benzene sulfonamide]	
≤ 50 nM	CNS(=O)(=O)c1ccc(Nc2ncc3c(n2)N([C@@H]2CCC[C@@]2(C)O)C(=O)C32CC2)c(F)c1 (relative stereo) [Example 11, 3-fluoro-4-((7′-((trans)-2-hydroxy-2-methylcyclopentyl)-6′-oxo-6′,7′-dihydrospiro[cyclopropane-1,5′-pyrrolo[2,3-d]pyrimidin]-2′-yl)amino)-N-methylbenzenesulfonamide]	
≤ 50 nM	CNS(=O)(=O)c1ccc(Nc2ncc3c(n2)N(c2cc4c(cc2Cl)CNCC4)C(=O)C32CC2)cc1 [Example 13, 4-((7′-(7-chloro-1,2,3,4-tetrahydroisoquinolin-6-yl)-6′-oxo-6′,7′-dihydrospiro[cyclopropane-1,5′-pyrrolo[2,3-d]pyrimidin]-2′-yl)amino)-N-methylbenzenesulfonamide]	
≤ 50 nM	CNS(=O)(=O)c1ccc(Nc2ncc3c(n2)N(c2cc(F)ccc2Cl)C(=O)C32CC2)cc1 [Example 15, 4-((7′-(2-chloro-5-fluorophenyl)-6′-oxo-6′,7′-dihydrospiro[cyclopropane-1,5′-pyrrolo[2,3-d]pyrimidin]-2′-yl)amino)-N-methylbenzenesulfonamide]	
